According to ChEMBL document CHEMBL6087481, “Interleukin-1 Receptor-Associated Kinase 4 (IRAK4) Degraders for Treating Inflammatory Diseases: Advances and Prospects” (J Med Chem, 2025):
Values belong to the molecule of their own block, whether it stands above or below them.

Assays:
[1] = molecular target: T1, Interleukin-1 receptor-associated kinase 4 (Homo sapiens, UniProt Q9NWZ3); assay: Inhibition of IRAK4 (unknown origin)
T1 sequence (Q9NWZ3 whole entry): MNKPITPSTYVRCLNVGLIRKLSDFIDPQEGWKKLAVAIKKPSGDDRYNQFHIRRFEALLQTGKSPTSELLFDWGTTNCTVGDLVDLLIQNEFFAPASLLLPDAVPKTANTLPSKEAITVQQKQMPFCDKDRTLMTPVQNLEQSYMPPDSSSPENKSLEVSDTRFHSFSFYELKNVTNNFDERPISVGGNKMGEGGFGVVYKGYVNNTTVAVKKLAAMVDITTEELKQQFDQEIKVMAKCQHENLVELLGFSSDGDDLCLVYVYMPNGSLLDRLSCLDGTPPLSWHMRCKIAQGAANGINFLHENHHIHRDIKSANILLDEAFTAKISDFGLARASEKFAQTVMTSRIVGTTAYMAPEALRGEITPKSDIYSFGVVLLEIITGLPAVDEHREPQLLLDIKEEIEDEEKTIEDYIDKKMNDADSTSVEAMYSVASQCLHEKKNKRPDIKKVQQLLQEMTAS

[2] = molecular target: von Hippel-Lindau disease tumor suppressor/Interleukin-1 receptor-associated kinase 4 (Homo sapiens, UniProt Q9NWZ3+P40337); assay: PROTAC activity at VHL/IRAK4 in human HEK293T cells assessed as IRAK4 degradation measured after 24 hrs by immunoblotting analysis; format: cell-based
[3] = molecular target: T2, Protein cereblon/Interleukin-1 receptor-associated kinase 4 (Mus musculus, UniProt Q8C7D2+Q8R4K2); assay: PROTAC activity at IRAK4/CRBN in mouse RAW264.7 cells assessed as reduction in IRAK4 level incubated for 12 hrs by Western blot analysis; format: cell-based
T2 sequence (Q8C7D2 whole entry): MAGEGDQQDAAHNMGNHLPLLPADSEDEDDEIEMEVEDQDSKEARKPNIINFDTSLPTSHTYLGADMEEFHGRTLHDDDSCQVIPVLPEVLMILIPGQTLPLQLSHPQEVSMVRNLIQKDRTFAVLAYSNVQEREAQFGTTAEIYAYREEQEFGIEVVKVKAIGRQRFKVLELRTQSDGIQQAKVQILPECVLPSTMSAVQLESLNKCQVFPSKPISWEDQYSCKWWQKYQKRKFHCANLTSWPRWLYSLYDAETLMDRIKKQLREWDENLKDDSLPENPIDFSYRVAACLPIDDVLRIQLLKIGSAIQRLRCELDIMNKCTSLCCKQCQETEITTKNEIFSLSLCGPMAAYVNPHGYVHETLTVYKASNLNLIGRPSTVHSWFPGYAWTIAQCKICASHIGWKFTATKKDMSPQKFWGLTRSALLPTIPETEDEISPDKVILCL
T2 sequence (Q8R4K2 whole entry): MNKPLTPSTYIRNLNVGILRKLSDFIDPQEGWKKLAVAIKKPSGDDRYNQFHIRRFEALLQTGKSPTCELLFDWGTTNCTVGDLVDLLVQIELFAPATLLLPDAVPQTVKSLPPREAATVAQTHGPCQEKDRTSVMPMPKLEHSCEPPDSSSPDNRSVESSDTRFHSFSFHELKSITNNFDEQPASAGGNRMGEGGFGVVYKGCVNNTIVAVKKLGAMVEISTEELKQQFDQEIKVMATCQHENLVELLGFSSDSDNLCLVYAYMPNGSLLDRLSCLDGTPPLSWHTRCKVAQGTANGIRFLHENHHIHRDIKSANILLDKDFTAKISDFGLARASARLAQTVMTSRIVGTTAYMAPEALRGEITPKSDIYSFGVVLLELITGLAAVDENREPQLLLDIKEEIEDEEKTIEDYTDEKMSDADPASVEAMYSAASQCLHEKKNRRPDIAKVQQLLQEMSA

Sequence of von Hippel-Lindau disease tumor suppressor/Interleukin-1 receptor-associated kinase 4 (P40337 whole entry, one chain of several): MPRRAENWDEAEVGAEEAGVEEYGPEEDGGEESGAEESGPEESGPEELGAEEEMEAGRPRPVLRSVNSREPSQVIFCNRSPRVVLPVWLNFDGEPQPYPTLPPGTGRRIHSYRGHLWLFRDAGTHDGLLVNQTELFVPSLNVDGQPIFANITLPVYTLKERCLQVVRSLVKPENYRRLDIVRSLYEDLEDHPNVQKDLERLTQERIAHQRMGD

IC50 [1]: 3 nM
Structure (SMILES): CC(C)Nc1cc(-n2ccc3cc(C#N)cnc32)ncc1C(=O)N[C@H]1CC[C@H](C(=O)NC2CC2)CC1

Structure (SMILES): CC(C)Nc1cc(-n2ccc3cc(C#N)cnc32)ncc1C(=O)N[C@H]1CC[C@H](C(=O)NCCOCCNC(=O)Oc2cccc3c2C(=O)N(C2CCC(=O)NC2=O)C3=O)CC1 (stereo partly drawn)
DC50 [2]: 405 nM

DC50 [3]: 47.3 nM
Structure (SMILES): COc1cc(N2CCN(C(=O)CCOCC#Cc3ccc4c(c3)C(=O)N(C3CCC(=O)NC3=O)C4=O)CC2)ccc1NC(=O)c1cccc(-c2ccn[nH]2)n1 (stereo not drawn)
